Data: patent US20080108645A1, “Dihydrotetrabenazines And Pharmaceutical Compositions Containing Them” (CAMBRIDGE LABORATORIES, (IRELAND), LTD., priority 2004, published 2008)

Assays:
Adrenergic α2B Receptor = target: T1, Adrenergic α2B Receptor (Homo sapiens, UniProt P18089); assay: Adrenergic α2B receptor radioligand binding; details: 10 μM; 2.5 nM [3H] Rauwolscine
T1 construct: expressed in transfected cells; host or cells: CHO-K1 cells
T1 sequence (P18089 1-450): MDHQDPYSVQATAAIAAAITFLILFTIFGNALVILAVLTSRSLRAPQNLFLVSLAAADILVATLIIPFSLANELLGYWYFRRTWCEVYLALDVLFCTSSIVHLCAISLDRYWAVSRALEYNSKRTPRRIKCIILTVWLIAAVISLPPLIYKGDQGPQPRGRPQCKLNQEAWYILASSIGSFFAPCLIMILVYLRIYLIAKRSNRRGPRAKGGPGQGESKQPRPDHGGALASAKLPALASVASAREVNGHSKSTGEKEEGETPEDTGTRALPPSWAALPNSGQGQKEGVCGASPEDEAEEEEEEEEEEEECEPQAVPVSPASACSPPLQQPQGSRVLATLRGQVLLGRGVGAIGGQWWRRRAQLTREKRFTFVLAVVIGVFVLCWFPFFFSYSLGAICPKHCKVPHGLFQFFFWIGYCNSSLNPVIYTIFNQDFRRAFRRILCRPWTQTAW
Protocol: (§1) (a) Adrenergic α2A Receptor: • Reference: S. Uhlen et al. J. Pharmacol. Exp. Ther., 271:1558-1565 (1994) • Source: Human recombinant insect Sf9 cells • Ligand: 1 nM [^3H] […] J. Pharmacol., 99:803-809, (1990) • Source: Wistar rat cerebral cortex • Ligand: 2 nM [3H]

Dopamine D1 Receptor = target: T2, Dopamine D1 Receptor (Homo sapiens, UniProt P21728); assay: Dopamine D1 receptor radioligand binding; details: 10 μM; 1.4 nM [3H] SCH-23390
T2 construct: expressed in transfected cells; host or cells: CHO cells
T2 sequence (P21728 whole entry): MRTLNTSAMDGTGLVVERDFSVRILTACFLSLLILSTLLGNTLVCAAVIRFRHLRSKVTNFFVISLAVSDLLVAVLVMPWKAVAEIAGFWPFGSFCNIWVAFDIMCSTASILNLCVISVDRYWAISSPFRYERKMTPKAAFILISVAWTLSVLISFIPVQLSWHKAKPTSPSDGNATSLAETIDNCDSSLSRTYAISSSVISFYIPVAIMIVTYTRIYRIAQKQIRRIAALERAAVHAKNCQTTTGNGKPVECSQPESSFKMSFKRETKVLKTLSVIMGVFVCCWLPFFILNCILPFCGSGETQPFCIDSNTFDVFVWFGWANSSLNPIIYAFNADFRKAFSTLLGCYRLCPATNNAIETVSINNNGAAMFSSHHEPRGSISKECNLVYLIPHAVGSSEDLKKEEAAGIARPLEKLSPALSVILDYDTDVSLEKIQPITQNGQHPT
Protocol: as §1

Dopamine D2L Receptor = target: T3, Dopamine D2L Receptor (Homo sapiens, UniProt P14416); assay: Dopamine D2L receptor radioligand binding; details: 10 μM; 0.16 nM [3H] Spiperone
T3 construct: expressed in transfected cells; host or cells: CHO cells
T3 sequence (P14416 whole entry): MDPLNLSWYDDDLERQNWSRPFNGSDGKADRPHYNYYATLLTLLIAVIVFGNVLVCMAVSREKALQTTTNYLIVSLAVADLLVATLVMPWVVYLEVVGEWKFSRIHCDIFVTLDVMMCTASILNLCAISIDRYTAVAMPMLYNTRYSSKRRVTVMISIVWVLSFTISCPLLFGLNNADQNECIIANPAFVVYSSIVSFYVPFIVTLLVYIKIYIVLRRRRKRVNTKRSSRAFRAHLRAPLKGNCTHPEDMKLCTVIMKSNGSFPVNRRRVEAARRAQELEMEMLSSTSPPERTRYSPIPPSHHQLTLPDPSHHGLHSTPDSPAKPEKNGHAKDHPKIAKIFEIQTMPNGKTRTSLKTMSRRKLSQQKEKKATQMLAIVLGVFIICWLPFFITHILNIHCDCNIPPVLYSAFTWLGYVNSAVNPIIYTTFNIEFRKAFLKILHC
Protocol: as §1

Adrenergic α2A Receptor = target: T4, Adrenergic α2A Receptor (Homo sapiens, UniProt P08913); assay: Adrenergic α2A receptor radioligand binding; details: 10 μM; 1 nM [3H] MK-912
T4 construct: expressed in transfected cells; host or cells: insect Sf9 cells
T4 sequence (P08913 1-465): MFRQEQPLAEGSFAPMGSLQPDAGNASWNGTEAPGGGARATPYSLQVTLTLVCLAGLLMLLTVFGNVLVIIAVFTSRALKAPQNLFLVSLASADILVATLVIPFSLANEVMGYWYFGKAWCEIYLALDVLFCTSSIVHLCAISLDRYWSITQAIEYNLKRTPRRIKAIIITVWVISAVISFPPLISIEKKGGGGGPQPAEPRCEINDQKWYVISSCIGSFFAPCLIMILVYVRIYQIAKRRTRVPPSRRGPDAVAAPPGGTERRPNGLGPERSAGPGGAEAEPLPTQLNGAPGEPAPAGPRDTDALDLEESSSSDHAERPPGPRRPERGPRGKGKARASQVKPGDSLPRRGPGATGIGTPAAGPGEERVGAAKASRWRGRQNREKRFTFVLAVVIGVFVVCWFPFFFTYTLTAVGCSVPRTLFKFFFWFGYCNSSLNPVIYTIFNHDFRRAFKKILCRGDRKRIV
Protocol: as §1

Sigma σ1 Receptor = target: T5, Sigma σ1 Receptor (Homo sapiens, UniProt Q99720); assay: Sigma σ1 receptor radioligand binding; details: 10 μM; 8 nM [3H] Haloperidol
T5 construct: Source: Human jurkat cells; endogenous in cells; host or cells: Jurkat cells
T5 sequence (Q99720 whole entry): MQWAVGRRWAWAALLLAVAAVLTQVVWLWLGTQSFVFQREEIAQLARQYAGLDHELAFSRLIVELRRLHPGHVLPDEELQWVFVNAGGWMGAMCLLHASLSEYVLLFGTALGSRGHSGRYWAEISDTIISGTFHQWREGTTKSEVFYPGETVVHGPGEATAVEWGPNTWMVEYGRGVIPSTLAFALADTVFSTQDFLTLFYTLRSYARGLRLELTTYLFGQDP
Protocol: as §1

[1] = system: Imidazoline I2 (Central) Receptor; assay: Imidazoline I2 (central) receptor radioligand binding; parameters: species or system Wistar rat; details: 10 μM; 2 nM [3H] Idazoxan
Protocol: as §1

VMAT1 = target: T6, VMAT1 (Rattus norvegicus, UniProt Q01818); assay: VMAT1 functional assay: [3H] dopamine uptake, rat adrenal chromaffin cell vesicles in presence of 10 μM tetrabenazine; assay type: biochemical; details: for IC50: in the presence of 10 μM Tetrabenazine, read-out: IC50, inhibition of [3H] dopamine uptake
T6 construct: The vesicular fraction was isolated in an identical fashion to that described for the brain preparation; from tissue; host or cells: SD rat adrenal medulla chromaffin cells, vesicular fraction
T6 sequence (Q01818 1-521): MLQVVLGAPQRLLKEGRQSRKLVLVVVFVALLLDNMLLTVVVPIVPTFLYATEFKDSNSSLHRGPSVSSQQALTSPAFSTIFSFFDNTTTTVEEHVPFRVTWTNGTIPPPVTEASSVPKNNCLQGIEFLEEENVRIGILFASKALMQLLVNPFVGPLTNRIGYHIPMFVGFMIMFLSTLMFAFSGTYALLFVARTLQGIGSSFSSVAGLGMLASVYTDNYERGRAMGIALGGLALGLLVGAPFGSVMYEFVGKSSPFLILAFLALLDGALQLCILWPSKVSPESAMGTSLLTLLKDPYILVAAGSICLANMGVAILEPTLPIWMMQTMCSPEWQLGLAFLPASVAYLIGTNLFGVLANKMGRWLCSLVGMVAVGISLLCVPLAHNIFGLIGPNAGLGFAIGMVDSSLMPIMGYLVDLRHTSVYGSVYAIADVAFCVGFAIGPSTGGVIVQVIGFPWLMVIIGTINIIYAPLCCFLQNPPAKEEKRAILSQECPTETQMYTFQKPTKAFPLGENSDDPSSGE
Protocol: Thus, adrenal glands were dissected in ice cold PBS, the capsule and cortex of the glands removed and the remaining medullae were minced. After multiple washes with PBS, the tissue was incubated with Ca2+-free collagenase IA solution (250 U/ml) for 30 minutes at 30° C. with gentle stirring. The digested tissue was rinsed three times and the dissociated cells were centrifuged at 3000 rpm to form a pellet, which was resuspended in PBS. The vesicular fraction was isolated in an identical fashion to that described for the brain preparation.
100 μl (approx. 2.5 μg protein) of synaptic vesicles were preincubated with increasing concentrations of test compound (prepared as previously described for binding assay) for 30 minutes (concentration range 10^−9 M-10^−4 M). The assay was performed for 3 minutes at 30° C. in the assay buffer (25 mM HEPES, 100 mM potassium tartrate, 1.7 mM ascorbic acid, 0.05 mM EGTA, 0.1 mM EDTA, 2 mM ATP-Mg^2+, pH 7.5), in the presence of [^3H] dopamine (30 nM final concentration). [^3H] dopamine uptake was measured in the presence of 10 μM tetrabenazine (selectively blocks VMAT2 at this concentration). Non-specific uptake was determined by measuring vesicular [^3H] dopamine uptake at 4° C. The reaction was then terminated by addition of ice-cold buffer assay buffer pH 7.5, containing 2 mM MgSO4 instead of 2 mM ATP-Mg^2+, and rapid filtration achieved through Whatman filters soaked in 0.5% polyethyleneimine. The filters were washed three times with cold buffer using a Brandel Harvester and the radioactivity trapped on the filters was counted using a liquid scintillation counter.

Caco-2 monolayer = details: Caco-2
Text: The assay relies on the ability of Caco-2 cells to differentiate into enterocytes when cultured on a microporous filter for a period of approximately 21 days. During the culture period, the Caco-2 cells undergo spontaneous morphological and biochemical changes, which produce a polarized monolayer with a well-defined brush border on the apical surface, as well as tight cellular junctions. Therefore, these cells may be used as an in vitro model for the analysis of drug permeability.
Absorption across the Caco-2 monolayer can be measured in two directions: apical-to-basolateral or basolateral-to-apical, by adding the compound to the apical or the basolateral chamber, respectively. At various time-points, samples are collected from the receiver-chamber for analysis for the rate of absorption as measured by the apparent permeability coefficient (Papp) across the monolayer.
The Papp value reflects a combination of the test article permeability through both transcellular (through cell membranes) and the paracellular (across the tight junctions between the cells) pathways. The relative contribution of these pathways depends upon the pKa, partition coefficient (log D), molecular radius, and charge of the test article at a given pH. Papp values can then be used to rank-order compounds for their permeability through Caco-2 monolayers.
Absorption was determined at pH 7.4 across cell monolayers in the apical-to-basolateral direction. Caco-2 cells used to estimate Papp values were grown for 26 days on Transwell inserts in 12-well plates. Monolayer integrity was verified before and after the absorption assay by the methods of transepithelial electrical resistance (Ohm-cm^2) and Lucifer Yellow.
On the day of the assay, the reference standards were diluted in Hank's balanced salt solution (HBSS), pH 7.4 to a final concentration of 50 μM. […] Dihydrotetrabenazine isomer samples were prepared at a concentration of 50 mM in DMSO. Each stock solution was further diluted in HBSS buffer (pH 7.4) to a final working concentration of 50 μM
The Caco-2 cell suspensions were prepared as follows. […] Once the cell density and viability were determined, Caco-2 cells were diluted in culture medium to a final working concentration of 2.0×10^5 cells/ml. The Caco-2 culture medium contained Dulbecco's Modified Eagle Medium, 10% fetal bovine serum, 100 μM non-essential amino acids, 100 U/ml penicillin and 100 μg/ml streptomycin.
Costar polycarbonate membranes (0.4 μm pore size) were pre-equilibrated with Caco-2 culture medium for 1 hour in a 37° C. water-jacketed incubator with 5% CO2. The content of the apical chamber was removed and replaced with 500 μl of Caco-2 cell suspension (200 000 cells/ml). Cells were further maintained in culture for 26 days in a 37° C. water-jacketed incubator with 5% CO2.
Prior to the assay, all monolayers were washed twice with HBSS and their transepithelial electrical resistance (TEER) was measured with a Millicell-ERS meter. TEER values obtained in the absence of cells were subtracted as background signal. Only monolayer with TEER values over 150 Ohm-cm^2 were used for the absorption assay experiment.
All absorption experiments were conducted in triplicate at pH 7.4. The rate of absorption of each reference standard and dihydrotetrabenazine test article was assessed in the apical-to-basolateral direction. Aliquots (100 μl) of each working solution (reference standards and test articles at 50 μM) were set aside at the beginning of the assay for the determination of the initial concentration (Co).
Absorption experiments were initiated by replacing the content of the donor chamber with 500 μl of Hanks Balanced Salt Solution containing test articles or reference compounds. Cells were returned to the CO2 incubator for the absorption assay. Samples of 100 μl were collected from the receiver and donor chambers after 1 hour and were used to determine the percentage of recovery.

Row | Compound | Percentage Inhibition of Specific Binding, α2B Receptor (Adrenergic α2B Receptor) [%] | Percentage Inhibition of Specific Binding, D1 Receptor (Dopamine D1 Receptor) [%] | Percentage Inhibition of Specific Binding, D2L Receptor (Dopamine D2L Receptor) [%] | Percentage Inhibition of Specific Binding, α2A Receptor (Adrenergic α2A Receptor) [%] | Percentage Inhibition of Specific Binding, σ1 Receptor (Sigma σ1 Receptor) [%] | Percentage Inhibition of Specific Binding, I2 Receptor [1] [%] | affinity for VMAT1 (in words) (VMAT1) | IC50 (VMAT1) [µM] | permeability in the Caco-2 model (in words) (Caco-2 monolayer)
1 | COc1cc2c(cc1OC)[C@H]1C[C@H](O)[C@@H](CC(C)C)CN1CC2 (single isomer, unassigned) [Isomer B, 3,11b-cis-dihydrotetrabenazine] | 14 | 1 | 16 | 12 | 82 | 8 | low affinity for VMAT-1 | > 10 | medium permeability
2 | COc1cc2c(cc1OC)[C@H]1C[C@@H](O)[C@@H](CC(C)C)CN1CC2 (single isomer, unassigned) [Isomer C, 3,11b-cis-dihydrotetrabenazine] | −7 | 6 | −14 | 13 | 59 | 0 | low affinity for VMAT-1 | > 10 | high permeability
